Measurements as given in article PMC9226124, “Macrocycle-stabilization of its interaction with 14-3-3 increases plasma membrane localization and activity of CFTR” (Nature Communications, 2022).
Values joined by “and” are separate entries in the source; they are usually repeats but may differ in a detail not shown here. Equal values may be shown once. One block for each molecule: values may come before it.

Columns and labels:
[1] = target: T1, 14-3-3β/CFTRpS753pS768 complex (Homo sapiens, UniProt P13569+P31946); assay: Dose-response fluorescence polarization (FP) assay, compound titration; type: binding; conditions: for Polarization, background subtracted: 14-3-3 10 μM, peptide 100 nM, replicates; for FP signal: With 14-3-3
T1 construct: His6 (cleaved yes); made in house; peptide synthetic
Method: The 14-3-3β concentration used for the FP screening assay was 10 μM (dashed line). c HTS FP assay of the Cyclenium library. The samples contain 100 nM of FITC-CFTR_pS753pS768 peptide, 10 μM 14-3-3β, and 50 μM compound. FC-A (100 µM) was added as a positive control and DMSO as the negative control. Hit compounds are defined as a polarization increase which is higher than 20% of the response of FC-A. Red squares are compounds that appeared positive in the negative control without 14-3-3. […] Background polarization was subtracted from all values, n = 3 technical replicates. Compounds selected for further analysis are indicated with an asterisk. e Polarization in the absence of 14-3-3. […] Source data are provided as a Source Data file. […]
(§1) The FITC-labeled peptides were dissolved in FP buffer (10 mM HEPES pH 7.4, 150 mM NaCl, 0.1% Tween20, 1 mg/mL BSA) to a final concentration of 100 nM or 10 nM. For the dose-response assays, a 14-3-3β concentration of 10 μM was used while titrating the compounds in a two-times dilution series and, for the other assays, a dilution series of 14-3-3β was made with constant concentration of compound. The dilution series were made in 384 Corning Black Round Bottom well plates and their polarization was measured with a Tecan Infinite F500 plate reader (ex. = 485 nm, em. = 535 nm). The method of fitting of the curves was: “log(agonist) vs. response – Variable slope (four parameters)” from GraphPad Prism. The equation is Y = Bottom + (Top-Bottom)/(1 + 10^((LogEC50-X)*HillSlope)).

[2] = target: T2, FITC-labeled CFTRpS753pS768 peptide (no 14-3-3) (Homo sapiens, UniProt P13569); assay: Dose-response FP control assay in the absence of 14-3-3; type: binding; conditions: for Polarization in the absence of 14-3-3, background subtracted: replicates; for FP signal: No 14-3-3
T2 construct: made in house; host or cells: synthetic peptide
Method: The 14-3-3β concentration used for the FP screening assay was 10 μM (dashed line). c HTS FP assay of the Cyclenium library. The samples contain 100 nM of FITC-CFTR_pS753pS768 peptide, 10 μM 14-3-3β, and 50 μM compound. FC-A (100 µM) was added as a positive control and DMSO as the negative control. Hit compounds are defined as a polarization increase which is higher than 20% of the response of FC-A. Red squares are compounds that appeared positive in the negative control without 14-3-3. […] Background polarization was subtracted from all values, n = 3 technical replicates. Compounds selected for further analysis are indicated with an asterisk. e Polarization in the absence of 14-3-3. […] Source data are provided as a Source Data file.
as §1

T1 sequence (P31946 whole entry): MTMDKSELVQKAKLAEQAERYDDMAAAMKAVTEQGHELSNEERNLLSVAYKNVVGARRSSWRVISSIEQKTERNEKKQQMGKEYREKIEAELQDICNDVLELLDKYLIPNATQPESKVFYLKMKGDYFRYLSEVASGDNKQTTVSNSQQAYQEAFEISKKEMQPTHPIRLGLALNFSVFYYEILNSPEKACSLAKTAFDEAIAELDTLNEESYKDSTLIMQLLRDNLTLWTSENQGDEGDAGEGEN
T1 sequence (P13569 747-774 limits assumed): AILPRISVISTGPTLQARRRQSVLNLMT

Polarization, background subtracted ([1]; compound 7.8125e-7 M): -1.033 and -2.233 and -1.933 | Polarization, background subtracted ([1]; compound 1.5625e-6 M): -4.033 and -5.333 and -2.333 | Polarization, background subtracted ([1]; compound 3.125e-6 M): -5.033 (2×) and -4.933 | Polarization, background subtracted ([1]; compound 6.25e-6 M): -4.133 and -2.733 and -3.633 | Polarization, background subtracted ([1]; compound 1.25e-5 M): 1.867 and 3.867 and 0.9667 | Polarization, background subtracted ([1]; compound 2.5e-5 M): 13.4667 and 18.8667 and 13.1667 | Polarization, background subtracted ([1]; compound 5e-5 M): 40.8667 and 54.6667 and 41.6667 | Polarization, background subtracted ([1]; compound 0.0001 M): 97.2667 and 108.167 and 99.8667 | Polarization in the absence of 14-3-3, background subtracted ([2]; compound 7.8125e-7 M): 0.06667 and 0.2667 and -0.03333 | Polarization in the absence of 14-3-3, background subtracted ([2]; compound 1.5625e-6 M): -0.3333 and -0.6333 (2×) | Polarization in the absence of 14-3-3, background subtracted ([2]; compound 3.125e-6 M): -0.6333 and 0.1667 and -0.7333 | Polarization in the absence of 14-3-3, background subtracted ([2]; compound 6.25e-6 M): -1.333 (2×) and -0.9333 | Polarization in the absence of 14-3-3, background subtracted ([2]; compound 1.25e-5 M): 0.06667 and -0.2333 and 0.1667 | Polarization in the absence of 14-3-3, background subtracted ([2]; compound 2.5e-5 M): -0.8333 and -1.033 and -0.2333 | Polarization in the absence of 14-3-3, background subtracted ([2]; compound 5e-5 M): -0.3333 and 0.2667 (2×) | Polarization in the absence of 14-3-3, background subtracted ([2]; compound 0.0001 M): 0.2667 and 1.467 and 3.067
SMILES: NCCCC1NC(=O)C(Cc2ccc(-c3ccccc3)cc2)NCc2ccccc2Sc2ccccc2CNC1=O (stereo not drawn) [CY001110]

SMILES: N=C(N)NCCCC1NC(=O)C(CCC(N)=O)NC(=O)C(CCCNC(=N)N)NC(=O)C2CCCN2Cc2cccc(c2)-c2ccccc2CNC1=O (stereo not drawn) [CY002028]
Polarization, background subtracted ([1]; compound 7.8125e-7 M): 0.5667 and 1.267 and 0.8667 | Polarization, background subtracted ([1]; compound 1.5625e-6 M): 0.6667 and -0.1333 and 0.5667 | Polarization, background subtracted ([1]; compound 3.125e-6 M): 1.867 (2×) and 1.167 | Polarization, background subtracted ([1]; compound 6.25e-6 M): 2.367 and 1.667 and 2.767 | Polarization, background subtracted ([1]; compound 1.25e-5 M): 6.467 and 4.967 and 7.667 | Polarization, background subtracted ([1]; compound 2.5e-5 M): 12.9667 and 10.8667 and 4.867 | Polarization, background subtracted ([1]; compound 5e-5 M): 26.7667 and 22.8667 and 21.6667 | Polarization, background subtracted ([1]; compound 0.0001 M): 66.6667 and 58.4667 and 74.5667 | Polarization in the absence of 14-3-3, background subtracted ([2]; compound 7.8125e-7 M): 1.367 and 0.8667 and 0.4667 | Polarization in the absence of 14-3-3, background subtracted ([2]; compound 1.5625e-6 M): 0.5667 and -0.1333 and 0.4667 | Polarization in the absence of 14-3-3, background subtracted ([2]; compound 3.125e-6 M): 0.3667 (2×) and 0.6667 | Polarization in the absence of 14-3-3, background subtracted ([2]; compound 6.25e-6 M): 0.2667 and -0.5333 and 0.6667 | Polarization in the absence of 14-3-3, background subtracted ([2]; compound 1.25e-5 M): -1.933 and 1.467 and 1.267 | Polarization in the absence of 14-3-3, background subtracted ([2]; compound 2.5e-5 M): 1.367 (2×) and 1.467 | Polarization in the absence of 14-3-3, background subtracted ([2]; compound 5e-5 M): 3.267 and 3.467 and 4.467 | Polarization in the absence of 14-3-3, background subtracted ([2]; compound 0.0001 M): 7.867 and 8.067 and 8.267

EC50 ([1]; 14-3-3β 10 μM, labeled CFTRpS753pS768 100 nM): False positive | FP signal ([1]; compound 338.6 pM): 2 | FP signal ([1]; compound 677.1 pM): 4 | FP signal ([1]; compound 1.35422e-9 M): 3 | FP signal ([1]; compound 2.70843e-9 M): 4 | FP signal ([1]; compound 5.41687e-9 M): 4 | FP signal ([1]; compound 1.08337e-8 M): 2 | FP signal ([1]; compound 2.16675e-8 M): 4 | FP signal ([1]; compound 4.3335e-8 M): 3 | FP signal ([1]; compound 8.66699e-8 M): 2 | FP signal ([1]; compound 1.7334e-7 M): 4 | FP signal ([1]; compound 3.4668e-7 M): 4 | FP signal ([1]; compound 6.93359e-7 M): 5 | FP signal ([1]; compound 1.38672e-6 M): 7 | FP signal ([1]; compound 2.77344e-6 M): 8 | FP signal ([1]; compound 5.54688e-6 M): 14 | FP signal ([1]; compound 1.10938e-5 M): 24 | FP signal ([1]; compound 2.21875e-5 M): 49 | FP signal ([1]; compound 4.4375e-5 M): 80 | FP signal ([1]; compound 8.875e-5 M): 145 | FP signal ([1]; compound 0.0001775 M): 211 | FP signal ([1]; compound 0.000355 M): 249 | FP signal ([1]; compound 0.00071 M): 275 | FP signal ([2]; compound 338.6 pM): 2 | FP signal ([2]; compound 677.1 pM): 4 | FP signal ([2]; compound 1.35422e-9 M): 3 | FP signal ([2]; compound 2.70843e-9 M): 4 | FP signal ([2]; compound 5.41687e-9 M): 4 | FP signal ([2]; compound 1.08337e-8 M): 2 | FP signal ([2]; compound 2.16675e-8 M): 4 | FP signal ([2]; compound 4.3335e-8 M): 3 | FP signal ([2]; compound 8.66699e-8 M): 2 | FP signal ([2]; compound 1.7334e-7 M): 4 | FP signal ([2]; compound 3.4668e-7 M): 4 | FP signal ([2]; compound 6.93359e-7 M): 5 | FP signal ([2]; compound 1.38672e-6 M): 7 | FP signal ([2]; compound 2.77344e-6 M): 8 | FP signal ([2]; compound 5.54688e-6 M): 14 | FP signal ([2]; compound 1.10938e-5 M): 24 | FP signal ([2]; compound 2.21875e-5 M): 49 | FP signal ([2]; compound 4.4375e-5 M): 80 | FP signal ([2]; compound 8.875e-5 M): 145 | FP signal ([2]; compound 0.0001775 M): 211 | FP signal ([2]; compound 0.000355 M): 249 | FP signal ([2]; compound 0.00071 M): 275
SMILES: N=C(N)NCCCC1NC(=O)C(Cc2ccccc2)NC(=O)C2(CCC(c3ccccc3)CC2)NCc2cccc(c2)-c2ccccc2CNC(=O)C(Cc2c[nH]c3ccccc23)NC1=O (stereo not drawn) [CY007183]

Polarization, background subtracted ([1]; compound 7.8125e-7 M): 3.967 and 7.467 and 1.967 | Polarization, background subtracted ([1]; compound 1.5625e-6 M): 3.067 and 3.467 and 2.467 | Polarization, background subtracted ([1]; compound 3.125e-6 M): 6.467 and 6.067 and 3.767 | Polarization, background subtracted ([1]; compound 6.25e-6 M): 9.367 and 10.5667 and 10.2667 | Polarization, background subtracted ([1]; compound 1.25e-5 M): 21.1667 and 31.0667 and 29.9667 | Polarization, background subtracted ([1]; compound 2.5e-5 M): 47.8667 and 51.0667 and 48.4667 | Polarization, background subtracted ([1]; compound 5e-5 M): 75.6667 and 90.6667 and 83.6667 | Polarization, background subtracted ([1]; compound 0.0001 M): 125.667 and 143.267 and 127.367 | Polarization in the absence of 14-3-3, background subtracted ([2]; compound 7.8125e-7 M): 1.267 and 1.067 and 0.9667 | Polarization in the absence of 14-3-3, background subtracted ([2]; compound 1.5625e-6 M): 0.5667 and 0.1667 and -0.03333 | Polarization in the absence of 14-3-3, background subtracted ([2]; compound 3.125e-6 M): 1.367 and 2.667 and 1.467 | Polarization in the absence of 14-3-3, background subtracted ([2]; compound 6.25e-6 M): 1.367 and 2.167 and 2.967 | Polarization in the absence of 14-3-3, background subtracted ([2]; compound 1.25e-5 M): 6.867 (2×) and 8.667 | Polarization in the absence of 14-3-3, background subtracted ([2]; compound 2.5e-5 M): 12.7667 and 12.6667 and 13.5667 | Polarization in the absence of 14-3-3, background subtracted ([2]; compound 5e-5 M): 29.6667 and 26.2667 and 32.2667 | Polarization in the absence of 14-3-3, background subtracted ([2]; compound 0.0001 M): 49.4667 and 44.0667 and 55.9667
SMILES: NCCCC1NCc2ccccc2Sc2ccccc2CNC(=O)C(Cc2c[nH]c3ccccc23)NC(=O)C(Cc2ccccc2)NC1=O (stereo not drawn) [CY000970]
